Measured values from ChEMBL document CHEMBL1201862, “PubChem BioAssay data set” (2004).
Values belong to the compound of their own block, whether it stands above or below them. Calls of active or inactive are those of the source.

How the values were obtained:
Type in all cases: functional
[1] = molecular target: T1, Short transient receptor potential channel 4 (Mus musculus, UniProt Q9QUQ5); test: mouse TRPC4 channel inhibitors, dose response, cell-based, HEK293 TRPC4/mu-opioid, Fluo-4 calcium (AID 434942);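 further: potency of inhibitors blocking the TRPC4 calcium response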
T1 sequence (Q9QUQ5 whole entry): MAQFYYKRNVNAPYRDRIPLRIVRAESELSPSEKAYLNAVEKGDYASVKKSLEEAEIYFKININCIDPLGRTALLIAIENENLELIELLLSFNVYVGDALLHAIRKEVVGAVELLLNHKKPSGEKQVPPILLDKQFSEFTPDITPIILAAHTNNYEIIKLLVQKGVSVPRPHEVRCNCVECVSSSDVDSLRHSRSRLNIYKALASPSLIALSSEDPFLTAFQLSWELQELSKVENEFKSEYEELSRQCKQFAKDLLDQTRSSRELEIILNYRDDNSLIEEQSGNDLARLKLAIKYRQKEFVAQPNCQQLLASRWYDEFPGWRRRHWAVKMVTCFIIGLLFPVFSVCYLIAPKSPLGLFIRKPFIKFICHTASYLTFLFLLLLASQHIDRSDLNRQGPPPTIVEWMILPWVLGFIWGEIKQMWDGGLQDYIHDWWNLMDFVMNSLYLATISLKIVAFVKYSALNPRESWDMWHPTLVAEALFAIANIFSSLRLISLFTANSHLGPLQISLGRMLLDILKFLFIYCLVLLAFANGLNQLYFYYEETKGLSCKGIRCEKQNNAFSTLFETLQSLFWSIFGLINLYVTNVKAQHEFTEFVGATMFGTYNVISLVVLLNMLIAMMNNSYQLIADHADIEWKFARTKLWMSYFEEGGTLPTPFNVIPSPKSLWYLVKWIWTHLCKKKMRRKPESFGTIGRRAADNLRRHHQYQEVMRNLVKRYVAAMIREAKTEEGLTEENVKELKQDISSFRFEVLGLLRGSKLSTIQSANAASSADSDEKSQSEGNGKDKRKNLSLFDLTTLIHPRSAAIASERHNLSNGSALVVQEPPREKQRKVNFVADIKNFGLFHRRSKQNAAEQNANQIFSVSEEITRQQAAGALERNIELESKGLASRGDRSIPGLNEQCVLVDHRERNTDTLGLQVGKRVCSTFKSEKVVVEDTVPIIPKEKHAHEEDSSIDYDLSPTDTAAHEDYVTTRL

Protein skinhead-1 = molecular target: T2, Protein skinhead-1 (Caenorhabditis elegans, UniProt P34707)
T2 sequence (P34707 whole entry): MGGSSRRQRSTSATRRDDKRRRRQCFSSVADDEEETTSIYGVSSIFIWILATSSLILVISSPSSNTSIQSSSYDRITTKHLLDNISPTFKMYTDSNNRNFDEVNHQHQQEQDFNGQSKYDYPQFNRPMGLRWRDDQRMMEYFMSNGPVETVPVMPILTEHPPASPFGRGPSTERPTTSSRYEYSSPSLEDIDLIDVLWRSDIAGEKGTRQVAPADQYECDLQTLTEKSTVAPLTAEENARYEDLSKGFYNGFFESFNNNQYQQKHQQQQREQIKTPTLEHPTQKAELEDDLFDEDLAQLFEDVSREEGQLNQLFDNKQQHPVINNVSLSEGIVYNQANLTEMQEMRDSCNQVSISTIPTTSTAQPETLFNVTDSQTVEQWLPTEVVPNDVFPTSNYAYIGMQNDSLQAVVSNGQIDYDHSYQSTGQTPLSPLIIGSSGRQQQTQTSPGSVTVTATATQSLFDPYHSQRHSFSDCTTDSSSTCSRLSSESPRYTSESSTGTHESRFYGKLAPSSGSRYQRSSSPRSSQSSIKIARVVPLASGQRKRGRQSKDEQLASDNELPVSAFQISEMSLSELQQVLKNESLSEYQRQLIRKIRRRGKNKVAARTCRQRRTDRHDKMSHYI

[2] = molecular target: Peroxisome proliferator-activated receptor gamma/Nuclear receptor coactivator 2 (Homo sapiens, UniProt P37231);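 further: agonist potency for raising coactivator recruitment to the receptor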
Sequence of Peroxisome proliferator-activated receptor gamma/Nuclear receptor coactivator 2 (P37231 whole entry): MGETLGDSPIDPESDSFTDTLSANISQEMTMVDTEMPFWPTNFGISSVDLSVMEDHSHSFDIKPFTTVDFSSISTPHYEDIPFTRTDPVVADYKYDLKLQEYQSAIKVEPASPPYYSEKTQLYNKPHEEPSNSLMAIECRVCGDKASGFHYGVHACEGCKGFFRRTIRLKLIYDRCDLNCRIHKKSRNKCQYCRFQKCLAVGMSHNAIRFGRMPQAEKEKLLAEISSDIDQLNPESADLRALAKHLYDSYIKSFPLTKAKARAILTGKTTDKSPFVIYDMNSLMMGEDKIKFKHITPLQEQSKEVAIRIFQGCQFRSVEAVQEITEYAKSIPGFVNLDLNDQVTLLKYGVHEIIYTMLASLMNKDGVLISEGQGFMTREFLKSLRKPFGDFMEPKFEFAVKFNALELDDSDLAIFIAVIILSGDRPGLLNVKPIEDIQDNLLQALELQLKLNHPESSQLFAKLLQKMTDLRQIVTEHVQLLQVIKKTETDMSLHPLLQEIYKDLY
Sequence of Peroxisome proliferator-activated receptor gamma/Nuclear receptor coactivator 2 (Q15596 whole entry, further chain): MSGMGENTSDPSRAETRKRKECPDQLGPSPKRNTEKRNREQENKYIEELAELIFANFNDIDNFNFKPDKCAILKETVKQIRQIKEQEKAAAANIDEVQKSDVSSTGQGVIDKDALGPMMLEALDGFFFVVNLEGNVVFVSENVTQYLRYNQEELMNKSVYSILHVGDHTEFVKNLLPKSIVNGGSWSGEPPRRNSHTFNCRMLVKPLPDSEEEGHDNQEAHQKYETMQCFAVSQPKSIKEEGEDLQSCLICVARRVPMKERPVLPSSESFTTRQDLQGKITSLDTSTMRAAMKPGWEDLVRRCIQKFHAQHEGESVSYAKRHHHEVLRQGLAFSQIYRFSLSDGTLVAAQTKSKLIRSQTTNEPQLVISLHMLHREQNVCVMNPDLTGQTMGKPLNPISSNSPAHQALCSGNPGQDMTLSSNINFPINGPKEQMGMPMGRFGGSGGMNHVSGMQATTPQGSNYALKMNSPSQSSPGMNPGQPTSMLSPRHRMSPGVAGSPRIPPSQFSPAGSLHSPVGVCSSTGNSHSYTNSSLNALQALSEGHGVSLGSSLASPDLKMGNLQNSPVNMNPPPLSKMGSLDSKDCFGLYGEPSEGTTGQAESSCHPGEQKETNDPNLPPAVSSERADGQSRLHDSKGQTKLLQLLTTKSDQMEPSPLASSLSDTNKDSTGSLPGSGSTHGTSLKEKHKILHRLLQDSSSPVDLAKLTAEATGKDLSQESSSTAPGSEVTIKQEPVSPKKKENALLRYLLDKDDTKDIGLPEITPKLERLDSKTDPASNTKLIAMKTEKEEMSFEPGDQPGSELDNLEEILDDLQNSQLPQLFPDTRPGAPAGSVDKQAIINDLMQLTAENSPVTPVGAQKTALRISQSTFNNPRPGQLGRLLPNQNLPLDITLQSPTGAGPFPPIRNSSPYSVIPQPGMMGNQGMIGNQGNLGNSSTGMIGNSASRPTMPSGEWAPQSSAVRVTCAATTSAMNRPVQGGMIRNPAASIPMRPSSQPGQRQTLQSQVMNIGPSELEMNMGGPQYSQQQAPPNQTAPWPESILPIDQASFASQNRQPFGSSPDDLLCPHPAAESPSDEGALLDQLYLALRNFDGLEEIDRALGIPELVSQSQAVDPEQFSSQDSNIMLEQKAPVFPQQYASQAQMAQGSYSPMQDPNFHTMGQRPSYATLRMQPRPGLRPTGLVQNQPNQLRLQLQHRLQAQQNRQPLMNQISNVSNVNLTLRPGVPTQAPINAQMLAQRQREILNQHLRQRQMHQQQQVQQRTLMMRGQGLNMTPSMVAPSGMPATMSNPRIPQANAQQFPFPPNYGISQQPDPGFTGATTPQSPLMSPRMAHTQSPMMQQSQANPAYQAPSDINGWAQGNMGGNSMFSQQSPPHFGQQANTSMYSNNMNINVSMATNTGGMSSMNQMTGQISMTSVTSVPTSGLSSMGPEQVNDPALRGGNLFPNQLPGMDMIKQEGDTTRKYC

[3] = molecular target: Peroxisome proliferator-activated receptor gamma/Nuclear receptor coactivator 1 (Homo sapiens, UniProt P37231);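 further: agonist potency as compounds enhance coactivator SRC-1 recruitment to PPARgamma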
[4] = molecular target: Peroxisome proliferator-activated receptor gamma/Nuclear receptor coactivator 3 (Homo sapiens, UniProt P37231);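 further: agonist potency for raising coactivator recruitment to the receptor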
Sequence of Peroxisome proliferator-activated receptor gamma/Nuclear receptor coactivator 3 (P37231 whole entry): as the sequence (P37231 whole entry) above
Sequence of Peroxisome proliferator-activated receptor gamma/Nuclear receptor coactivator 3 (Q9Y6Q9 whole entry, further chain): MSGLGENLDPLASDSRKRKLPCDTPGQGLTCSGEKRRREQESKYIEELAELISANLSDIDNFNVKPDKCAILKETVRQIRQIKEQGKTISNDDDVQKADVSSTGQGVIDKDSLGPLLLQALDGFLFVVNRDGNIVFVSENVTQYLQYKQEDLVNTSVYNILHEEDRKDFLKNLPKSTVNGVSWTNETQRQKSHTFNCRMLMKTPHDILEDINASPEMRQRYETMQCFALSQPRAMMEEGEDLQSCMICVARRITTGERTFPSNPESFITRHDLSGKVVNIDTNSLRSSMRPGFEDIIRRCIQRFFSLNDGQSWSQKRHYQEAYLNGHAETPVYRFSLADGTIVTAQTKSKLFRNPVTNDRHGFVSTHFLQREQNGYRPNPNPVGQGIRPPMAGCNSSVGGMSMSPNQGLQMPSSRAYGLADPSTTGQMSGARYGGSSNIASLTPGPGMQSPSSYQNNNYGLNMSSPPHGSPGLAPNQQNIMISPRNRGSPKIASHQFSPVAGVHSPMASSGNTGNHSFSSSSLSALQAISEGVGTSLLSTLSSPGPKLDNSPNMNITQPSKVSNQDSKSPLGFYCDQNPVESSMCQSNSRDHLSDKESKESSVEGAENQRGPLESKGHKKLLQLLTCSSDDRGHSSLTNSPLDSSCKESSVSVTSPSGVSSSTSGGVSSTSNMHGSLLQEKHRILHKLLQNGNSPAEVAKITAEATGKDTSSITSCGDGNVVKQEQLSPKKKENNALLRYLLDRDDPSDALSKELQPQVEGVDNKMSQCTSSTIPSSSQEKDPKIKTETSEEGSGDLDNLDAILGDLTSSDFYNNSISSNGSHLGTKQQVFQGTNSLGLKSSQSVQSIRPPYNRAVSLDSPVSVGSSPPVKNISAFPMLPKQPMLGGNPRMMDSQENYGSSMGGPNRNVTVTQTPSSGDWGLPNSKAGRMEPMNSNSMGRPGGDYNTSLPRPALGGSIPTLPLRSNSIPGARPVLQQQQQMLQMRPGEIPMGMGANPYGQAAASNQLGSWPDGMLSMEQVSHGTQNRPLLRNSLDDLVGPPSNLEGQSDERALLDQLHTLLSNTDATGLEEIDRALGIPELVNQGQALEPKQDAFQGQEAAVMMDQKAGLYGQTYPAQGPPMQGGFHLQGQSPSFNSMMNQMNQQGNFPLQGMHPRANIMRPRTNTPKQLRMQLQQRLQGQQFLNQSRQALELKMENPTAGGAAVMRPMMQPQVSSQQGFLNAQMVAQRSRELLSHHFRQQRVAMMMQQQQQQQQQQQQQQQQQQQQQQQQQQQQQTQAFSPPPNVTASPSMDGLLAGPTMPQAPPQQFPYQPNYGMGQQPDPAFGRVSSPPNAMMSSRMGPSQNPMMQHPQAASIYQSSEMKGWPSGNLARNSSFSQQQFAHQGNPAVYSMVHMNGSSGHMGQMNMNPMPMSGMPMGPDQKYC

Caspase-3 = molecular target: T3, Caspase-3 (Homo sapiens, UniProt P42574);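 further: Dose-response selectivity test against caspase-3 for candidate inhibitors of sentrin-specific proteases (SENPs)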
T3 sequence (P42574 whole entry): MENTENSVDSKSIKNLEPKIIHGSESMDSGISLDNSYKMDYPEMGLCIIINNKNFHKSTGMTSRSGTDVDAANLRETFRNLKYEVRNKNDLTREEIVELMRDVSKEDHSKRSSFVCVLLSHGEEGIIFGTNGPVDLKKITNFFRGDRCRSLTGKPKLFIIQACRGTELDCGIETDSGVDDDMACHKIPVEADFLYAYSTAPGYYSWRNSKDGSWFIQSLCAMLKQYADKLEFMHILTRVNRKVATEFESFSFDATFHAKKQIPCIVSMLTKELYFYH

[5] = molecular target: T4, Sentrin-specific protease 7 (Homo sapiens, UniProt Q9BQF6);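 further: Luminescence-based dose-response confirmation of ultra-high-throughput screening hits, measuring inhibition of SENP7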
T4 sequence (Q9BQF6 whole entry): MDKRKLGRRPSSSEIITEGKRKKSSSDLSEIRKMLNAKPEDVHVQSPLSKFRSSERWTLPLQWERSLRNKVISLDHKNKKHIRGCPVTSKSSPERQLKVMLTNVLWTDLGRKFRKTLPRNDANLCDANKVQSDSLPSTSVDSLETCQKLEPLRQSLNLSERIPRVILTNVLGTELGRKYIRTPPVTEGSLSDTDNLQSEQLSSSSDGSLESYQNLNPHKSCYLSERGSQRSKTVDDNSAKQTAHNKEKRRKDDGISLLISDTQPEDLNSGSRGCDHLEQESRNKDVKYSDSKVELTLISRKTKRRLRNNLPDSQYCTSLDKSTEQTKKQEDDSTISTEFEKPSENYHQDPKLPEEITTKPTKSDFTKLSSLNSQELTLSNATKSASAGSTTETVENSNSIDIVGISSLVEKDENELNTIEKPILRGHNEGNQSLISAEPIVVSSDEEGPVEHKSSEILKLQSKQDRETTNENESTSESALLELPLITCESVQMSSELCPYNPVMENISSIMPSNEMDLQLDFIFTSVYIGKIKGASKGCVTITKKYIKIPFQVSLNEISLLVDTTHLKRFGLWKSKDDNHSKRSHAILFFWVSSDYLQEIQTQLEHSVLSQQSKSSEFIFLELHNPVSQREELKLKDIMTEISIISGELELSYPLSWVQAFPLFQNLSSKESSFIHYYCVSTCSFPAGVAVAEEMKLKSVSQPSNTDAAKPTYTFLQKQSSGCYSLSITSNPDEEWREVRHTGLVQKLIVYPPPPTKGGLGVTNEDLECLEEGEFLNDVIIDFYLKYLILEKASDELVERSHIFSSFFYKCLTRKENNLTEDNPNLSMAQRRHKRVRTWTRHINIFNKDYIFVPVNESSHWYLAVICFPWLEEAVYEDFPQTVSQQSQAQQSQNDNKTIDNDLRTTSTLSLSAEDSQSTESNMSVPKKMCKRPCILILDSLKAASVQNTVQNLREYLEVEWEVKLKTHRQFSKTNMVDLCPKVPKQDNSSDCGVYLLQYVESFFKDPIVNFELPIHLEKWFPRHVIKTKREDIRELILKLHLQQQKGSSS

[6] = molecular target: T5, Sentrin-specific protease 8 (Homo sapiens, UniProt Q96LD8);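 further: luminescence read-out of SENP8 inhibition, dose-response confirmation following an ultra-high-throughput screen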
T5 sequence (Q96LD8 whole entry): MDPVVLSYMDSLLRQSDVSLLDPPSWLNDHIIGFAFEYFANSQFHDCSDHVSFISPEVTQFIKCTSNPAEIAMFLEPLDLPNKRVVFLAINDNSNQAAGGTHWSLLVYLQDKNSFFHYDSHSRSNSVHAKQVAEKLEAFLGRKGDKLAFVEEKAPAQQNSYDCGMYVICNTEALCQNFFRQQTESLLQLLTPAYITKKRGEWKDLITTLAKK

[7] = molecular target: T6, Sentrin-specific protease 6 (Homo sapiens, UniProt Q9GZR1);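 further: Luminescence-based dose-response confirmatory assay of SENP6 inhibition, following up an ultra-high-throughput screen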
T6 sequence (Q9GZR1 whole entry): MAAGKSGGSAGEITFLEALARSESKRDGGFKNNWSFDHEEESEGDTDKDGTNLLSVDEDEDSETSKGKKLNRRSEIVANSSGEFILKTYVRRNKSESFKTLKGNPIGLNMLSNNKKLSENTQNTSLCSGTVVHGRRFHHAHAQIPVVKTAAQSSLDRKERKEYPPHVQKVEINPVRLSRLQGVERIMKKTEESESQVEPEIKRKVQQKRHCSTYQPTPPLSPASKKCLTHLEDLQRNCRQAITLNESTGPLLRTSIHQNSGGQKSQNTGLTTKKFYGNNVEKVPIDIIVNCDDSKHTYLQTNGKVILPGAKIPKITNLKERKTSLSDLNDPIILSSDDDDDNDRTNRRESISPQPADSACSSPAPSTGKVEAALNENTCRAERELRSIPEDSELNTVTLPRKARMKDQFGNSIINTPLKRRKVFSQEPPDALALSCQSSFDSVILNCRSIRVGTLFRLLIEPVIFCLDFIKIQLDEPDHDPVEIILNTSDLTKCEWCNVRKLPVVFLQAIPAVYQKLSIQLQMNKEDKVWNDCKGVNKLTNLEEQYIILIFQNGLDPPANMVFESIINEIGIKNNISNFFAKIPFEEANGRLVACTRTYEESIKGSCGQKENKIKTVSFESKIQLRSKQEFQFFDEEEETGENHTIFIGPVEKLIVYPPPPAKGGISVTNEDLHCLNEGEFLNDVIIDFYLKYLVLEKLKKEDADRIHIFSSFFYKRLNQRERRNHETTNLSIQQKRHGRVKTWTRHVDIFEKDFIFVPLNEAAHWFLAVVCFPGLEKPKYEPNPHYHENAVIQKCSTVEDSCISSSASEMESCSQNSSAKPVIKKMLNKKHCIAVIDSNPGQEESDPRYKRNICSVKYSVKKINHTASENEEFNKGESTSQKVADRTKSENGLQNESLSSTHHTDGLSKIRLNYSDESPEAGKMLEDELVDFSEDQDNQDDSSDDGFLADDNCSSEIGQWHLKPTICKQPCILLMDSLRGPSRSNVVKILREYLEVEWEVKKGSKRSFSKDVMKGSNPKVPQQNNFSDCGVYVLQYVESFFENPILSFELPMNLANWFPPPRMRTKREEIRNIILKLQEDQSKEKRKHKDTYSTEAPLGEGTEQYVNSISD

EC50 [1]: 0.0947 µM (active) | IC50 (Protein skinhead-1): > 100 µM (inactive)
SMILES: CCC1CCCCN1CCN1C(=O)C2C(C(=O)Nc3ccc(OC)cc3)C3C=CC2(O3)C1C(=O)NC1CCCCC1 (stereo unspecified)

EC50 [1]: 5.31 µM (active)
SMILES: C=CCc1ccccc1OCC(O)CN1CCN(c2ccccc2OC)CC1 (stereo unspecified)

EC50 [1]: 6.68 µM (active)
SMILES: Cc1ccc(NC(=O)CN2CCc3ccccc3C2)cc1F

EC50 [1]: 15 µM (active)
SMILES: COc1ccc(C(CNC(=O)c2oc3ccc(Cl)cc3c2C)N2CCCCC2)cc1 (stereo unspecified)

EC50 [1]: 2.99 µM (active)
SMILES: OCc1ccccc1CNCc1ccccc1

EC50 [1]: 4.22 µM (active)
SMILES: Cc1c(N)c(C(C)(C)C)cc(C(C)(C)C)c1[N+](=O)[O-]

EC50 [2]: > 79.4 µM (not active) | EC50 [3]: > 79.4 µM (not active) | EC50 [4]: > 79.4 µM (not active)
SMILES: C=CCn1c(=O)c2ccccc2n2c(SCc3nc(N)nc(Nc4ccccc4C)n3)nnc12

EC50 [2]: > 79.4 µM (not active) | EC50 [3]: > 79.4 µM (not active) | EC50 [4]: > 79.4 µM (not active)
SMILES: CCCCOc1ccc(C(=O)N/C(=C/C=C/c2ccccc2)C(=O)O)cc1

IC50 (Caspase-3): 15 µM (active) | IC50 [5]: 5.51 µM (active) | IC50 [7]: 17.4 µM (active)
SMILES: Cc1ccc(C(=O)COC(=O)c2ccc(Cl)c(N)c2)s1
IC50 [6]: 23.1 µM (active)

EC50 [2]: 9.65 µM (active) | EC50 [3]: 9.78 µM (active) | EC50 [4]: > 79.4 µM (not active)
SMILES: Cc1ccc(C(=O)Nc2nnc(-c3cccs3)s2)cc1C

SMILES: COc1cccc(O)c1CN1CCCC(C(=O)c2sccc2C)C1 (stereo unspecified)
EC50 [1]: 3.35 µM (active)
